# US20160067674A1, “LIGANDS AND METHODS FOR ISOLATING OR REMOVING PROTEINS” (PreviPharma AG, priority 2014, published 2016)
# Starred links: 1 amine or outer side, 2 acyl side, 3 side chain; linkers in the order of their positions; H or OH if unused. No end group written: not given here. *: point of attachment. code X = linker with the sequence GSGSGSG, O=C(CNC(=O)[C@H](CO)NC(=O)CN[*:1])N[C@@H](CO)C(=O)NCC(=O)N[C@@H](CO)C(=O)NCC(=O)[*:2]; Biotin = O=C1N[C@H]2[C@H](CS[C@H]2CCCCC(=O)*)N1
# Key:
# [1] = tested on: factor V or factor VIII; experiment: Peptide array of Protein C sequence, binding affinity towards factor V or factor VIII; settings: compared with sequences i) to iii)
# From the text: (§1) In this manner, the sequences of Protein A, Protein G, Protein H and FcRn were investigated for peptides binding to IgG. In addition, the sequence of Protein C was investigated for peptides binding to factor V and factor VIII.
# [2] = target: factor VIII (Homo sapiens, UniProt P00451); experiment: Peptide array of Protein C sequence for peptides binding to factor VIII
# Sequence of factor VIII (P00451 20-2351, species assumed): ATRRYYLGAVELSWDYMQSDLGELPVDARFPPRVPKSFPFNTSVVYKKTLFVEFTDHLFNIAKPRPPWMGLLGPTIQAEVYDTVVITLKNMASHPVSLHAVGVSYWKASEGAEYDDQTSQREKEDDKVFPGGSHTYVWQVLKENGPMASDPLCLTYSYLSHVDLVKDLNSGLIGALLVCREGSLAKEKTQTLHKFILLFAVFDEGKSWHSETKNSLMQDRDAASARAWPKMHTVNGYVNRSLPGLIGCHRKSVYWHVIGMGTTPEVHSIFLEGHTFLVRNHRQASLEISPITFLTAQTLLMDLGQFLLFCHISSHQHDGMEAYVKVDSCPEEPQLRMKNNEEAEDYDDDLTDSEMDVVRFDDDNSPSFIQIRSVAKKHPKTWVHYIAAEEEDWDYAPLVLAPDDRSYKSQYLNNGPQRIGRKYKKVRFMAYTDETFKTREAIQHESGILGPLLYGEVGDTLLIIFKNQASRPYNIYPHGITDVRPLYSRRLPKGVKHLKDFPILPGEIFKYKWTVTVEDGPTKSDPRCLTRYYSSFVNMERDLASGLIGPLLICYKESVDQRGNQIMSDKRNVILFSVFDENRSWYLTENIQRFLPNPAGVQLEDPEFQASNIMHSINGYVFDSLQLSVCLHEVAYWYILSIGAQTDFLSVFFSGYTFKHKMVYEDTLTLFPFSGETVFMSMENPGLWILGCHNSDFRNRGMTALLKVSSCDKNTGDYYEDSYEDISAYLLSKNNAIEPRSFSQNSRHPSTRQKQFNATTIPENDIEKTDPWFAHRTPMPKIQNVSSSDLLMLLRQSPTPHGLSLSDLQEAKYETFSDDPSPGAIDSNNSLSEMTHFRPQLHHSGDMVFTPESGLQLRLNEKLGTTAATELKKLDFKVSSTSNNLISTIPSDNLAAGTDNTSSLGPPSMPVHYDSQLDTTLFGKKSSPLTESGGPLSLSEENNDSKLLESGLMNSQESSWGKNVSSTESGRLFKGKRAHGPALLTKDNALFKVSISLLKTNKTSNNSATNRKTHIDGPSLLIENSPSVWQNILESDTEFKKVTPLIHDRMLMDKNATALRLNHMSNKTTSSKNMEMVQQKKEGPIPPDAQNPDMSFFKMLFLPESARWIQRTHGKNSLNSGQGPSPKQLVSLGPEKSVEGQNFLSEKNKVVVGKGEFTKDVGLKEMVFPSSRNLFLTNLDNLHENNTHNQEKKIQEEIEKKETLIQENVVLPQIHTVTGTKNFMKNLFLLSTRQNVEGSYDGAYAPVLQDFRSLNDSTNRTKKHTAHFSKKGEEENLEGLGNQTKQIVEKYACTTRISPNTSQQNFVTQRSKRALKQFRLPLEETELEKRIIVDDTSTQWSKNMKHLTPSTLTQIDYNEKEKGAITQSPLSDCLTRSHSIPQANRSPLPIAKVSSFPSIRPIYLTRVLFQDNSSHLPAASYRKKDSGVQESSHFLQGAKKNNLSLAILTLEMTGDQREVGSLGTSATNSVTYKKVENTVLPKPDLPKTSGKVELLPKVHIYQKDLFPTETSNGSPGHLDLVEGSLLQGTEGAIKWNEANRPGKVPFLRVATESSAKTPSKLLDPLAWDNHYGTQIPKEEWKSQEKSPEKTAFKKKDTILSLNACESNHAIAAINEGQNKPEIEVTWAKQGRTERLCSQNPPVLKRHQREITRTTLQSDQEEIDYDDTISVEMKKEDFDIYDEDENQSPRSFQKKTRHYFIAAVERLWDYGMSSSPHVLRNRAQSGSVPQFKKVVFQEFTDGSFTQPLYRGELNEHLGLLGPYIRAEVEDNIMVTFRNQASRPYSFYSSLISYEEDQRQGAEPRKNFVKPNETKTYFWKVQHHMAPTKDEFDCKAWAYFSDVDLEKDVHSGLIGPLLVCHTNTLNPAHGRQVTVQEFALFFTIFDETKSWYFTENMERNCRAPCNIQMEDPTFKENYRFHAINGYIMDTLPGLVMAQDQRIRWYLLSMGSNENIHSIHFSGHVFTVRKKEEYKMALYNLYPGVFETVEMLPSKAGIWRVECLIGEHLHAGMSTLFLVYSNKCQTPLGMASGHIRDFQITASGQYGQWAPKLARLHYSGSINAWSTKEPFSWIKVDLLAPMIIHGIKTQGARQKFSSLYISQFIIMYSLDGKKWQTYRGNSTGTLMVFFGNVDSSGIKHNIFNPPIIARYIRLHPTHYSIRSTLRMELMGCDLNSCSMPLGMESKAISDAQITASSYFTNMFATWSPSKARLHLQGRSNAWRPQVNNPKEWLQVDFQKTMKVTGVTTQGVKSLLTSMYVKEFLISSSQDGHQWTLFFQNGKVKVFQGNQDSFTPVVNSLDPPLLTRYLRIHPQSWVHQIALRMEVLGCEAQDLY
# From the text: as §1
# [3] = target: factor V (Homo sapiens, UniProt P12259); experiment: Peptide array of Protein C sequence for peptides binding to factor V
# Sequence of factor V (P12259 29-2224): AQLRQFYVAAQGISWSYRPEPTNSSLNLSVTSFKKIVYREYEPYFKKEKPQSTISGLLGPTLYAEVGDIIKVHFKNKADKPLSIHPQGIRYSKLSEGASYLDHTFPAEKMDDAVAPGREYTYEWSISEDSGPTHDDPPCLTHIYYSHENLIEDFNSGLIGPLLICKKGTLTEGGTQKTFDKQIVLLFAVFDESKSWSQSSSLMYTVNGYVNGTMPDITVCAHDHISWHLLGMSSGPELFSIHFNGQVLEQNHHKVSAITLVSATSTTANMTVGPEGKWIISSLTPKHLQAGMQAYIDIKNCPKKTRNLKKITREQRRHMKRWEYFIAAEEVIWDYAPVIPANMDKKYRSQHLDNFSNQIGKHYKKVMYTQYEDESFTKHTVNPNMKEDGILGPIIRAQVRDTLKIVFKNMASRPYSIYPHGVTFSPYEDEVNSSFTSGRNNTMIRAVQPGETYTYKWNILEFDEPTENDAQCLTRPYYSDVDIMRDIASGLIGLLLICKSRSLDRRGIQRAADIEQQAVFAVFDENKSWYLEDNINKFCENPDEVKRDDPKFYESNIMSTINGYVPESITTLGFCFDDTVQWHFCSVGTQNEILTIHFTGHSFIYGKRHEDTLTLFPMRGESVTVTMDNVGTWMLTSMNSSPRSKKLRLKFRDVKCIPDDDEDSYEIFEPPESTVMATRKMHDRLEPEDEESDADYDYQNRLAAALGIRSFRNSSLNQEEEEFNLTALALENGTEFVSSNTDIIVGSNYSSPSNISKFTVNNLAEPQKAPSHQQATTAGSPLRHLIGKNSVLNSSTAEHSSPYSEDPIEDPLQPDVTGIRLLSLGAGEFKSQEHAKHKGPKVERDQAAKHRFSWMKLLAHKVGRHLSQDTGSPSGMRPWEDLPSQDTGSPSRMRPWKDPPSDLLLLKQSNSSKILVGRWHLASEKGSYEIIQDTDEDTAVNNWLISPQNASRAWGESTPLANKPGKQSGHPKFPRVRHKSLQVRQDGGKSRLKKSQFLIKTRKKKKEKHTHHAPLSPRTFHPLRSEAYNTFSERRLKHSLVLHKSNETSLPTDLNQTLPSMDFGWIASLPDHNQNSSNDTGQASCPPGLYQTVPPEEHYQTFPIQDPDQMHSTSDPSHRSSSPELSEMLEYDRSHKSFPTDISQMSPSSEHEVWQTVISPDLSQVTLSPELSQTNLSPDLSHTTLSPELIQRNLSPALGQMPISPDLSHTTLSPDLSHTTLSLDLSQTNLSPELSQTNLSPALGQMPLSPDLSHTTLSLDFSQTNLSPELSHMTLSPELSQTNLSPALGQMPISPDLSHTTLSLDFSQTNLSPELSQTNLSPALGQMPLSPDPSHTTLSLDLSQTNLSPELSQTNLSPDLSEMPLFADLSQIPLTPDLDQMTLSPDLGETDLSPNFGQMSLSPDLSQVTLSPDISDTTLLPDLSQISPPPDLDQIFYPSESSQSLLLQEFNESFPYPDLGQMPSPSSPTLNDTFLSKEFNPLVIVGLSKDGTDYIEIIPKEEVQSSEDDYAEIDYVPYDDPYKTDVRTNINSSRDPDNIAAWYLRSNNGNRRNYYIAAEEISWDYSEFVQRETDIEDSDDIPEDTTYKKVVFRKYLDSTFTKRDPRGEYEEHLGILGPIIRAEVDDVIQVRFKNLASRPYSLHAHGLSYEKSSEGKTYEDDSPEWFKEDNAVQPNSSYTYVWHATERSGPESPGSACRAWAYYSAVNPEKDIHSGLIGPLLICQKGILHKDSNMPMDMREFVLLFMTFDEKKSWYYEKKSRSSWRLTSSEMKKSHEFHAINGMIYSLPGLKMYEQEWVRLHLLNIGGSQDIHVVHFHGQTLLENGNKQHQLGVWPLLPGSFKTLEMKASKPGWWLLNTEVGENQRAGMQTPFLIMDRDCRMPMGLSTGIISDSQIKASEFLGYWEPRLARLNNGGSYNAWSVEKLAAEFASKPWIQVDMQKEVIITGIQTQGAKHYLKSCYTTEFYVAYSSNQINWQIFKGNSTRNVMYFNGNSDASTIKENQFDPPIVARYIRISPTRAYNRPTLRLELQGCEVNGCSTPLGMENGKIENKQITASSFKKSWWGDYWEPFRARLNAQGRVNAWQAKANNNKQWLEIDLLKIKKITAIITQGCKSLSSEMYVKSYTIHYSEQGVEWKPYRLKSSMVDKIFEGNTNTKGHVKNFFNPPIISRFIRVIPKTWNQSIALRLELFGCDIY
# From the text: as §1
# [4] = tested on: IgG; experiment: IgG binding to and release from peptide-modified streptavidin latex particles, bound and eluted IgG analysed by ELISA
# Protocol: Subsequently, it was evaluated whether IgG can be bound to and released from the thus prepared modified latex. For this purpose, 10 mg of the modified latex particles were mixed with 400 μl of an IgG solution containing 0.22 mg/ml IgG. After allowing the mixture to react at room temperature for one hour, the supernatant solution was removed from the latex beads and the beads were washed to remove any non-bound IgG. The beads were then evaluated for bound IgG.
# In the next step, the beads were added to 400 μl of an elution buffer (25 mM acetate buffer at pH 3.0) and shaken for one hour at room temperature. The supernatant was then removed from the beads and the beads were cleaned by washing. Both the bound and eluted IgG was an analysed by an ELISA assay.
substance,measurement,setting,value
FVHPNYSKSTTDNDIALLH [iv)],binding affinity towards factor V or factor VIII,[1],weaker
GDSGGPMVASFHG,selectivity for factor VIII,[2]; versus factor V,high selectivity
same,binding to factor V,[3],not significantly bind
HNYGVYTKVSRYL,binding to factor VIII,[2],not significantly binding
LEGYDLRRWEKWE,binding to factor VIII,[2],binds equally strong
same,binding to factor V,[3],binds equally strong
TGWGYHSSREKEA [v)],binding affinity towards factor V or factor VIII,[1],weaker
"bio-X-QQQLITIKQISEASRKSLSRD ({Biotin-code X}-QQQLITIKQISEASRKSLSRD) [Peptide 2, biotin-labelled peptide; bio = biotin, X = linker GSGSGSG]",IgG bound,"[4]; 10 mg peptide-modified latex, 400 μl of 0.22 mg/ml IgG, 1 h room temperature",55 µg
same,IgG Elution,"[4]; 400 μl 25 mM acetate buffer pH 3.0, 1 h room temperature",52 µg
same,Recovery [IgG],[4]; eluted relative to bound IgG,95%
